Results on 13 molecules are retold here after PubChem BioAssay (NCI).

Each structure is given as a SMILES string.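 Five concentrations, 48 hours, 96-well plates. TGI: concentration producing complete growth inhibition.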

What all share (test): NCI tumour cell line growth inhibition, 48 h
In assay [1] the test system is 786-0 renal.
Assay [2] deals with CAKI-1 renal.
For assay [3], the system named is MCF7 breast.
Assay [4] concerns SF-539 CNS.
Assay [5] has as its system SK-MEL-2 melanoma.
For assay [6], the system named is SK-MEL-28 melanoma.
Assay [7] relates to SK-OV-3 ovarian.
Assay [8] deals with SR leukemia.
Assay [9] relates to SW-620 colon.
The subject of assay [10] is UACC-62 melanoma.

Regarding `COc1ccccc1-c1cc(=O)c2cccnc2[nH]1`, the TGI in [1], in assay [2], in assay [3], in [4], in assay [5] and in assay [6] was above 100 µM in each case. For the same molecule, the TGI in [7], in [8], in assay [9] and in assay [10] was above 100 µM throughout.

With `CC1CC[C@@]2(OC1)OC1C[C@H]3[C@@H]4CC=C5C[C@@H](OC6OC(CO)C(OC7OC(CO)C(O)C(O)C7O)C(O)C6OC6OC(C)C(O)C(O)C6O)CC[C@]5(C)[C@H]4CC[C@]3(C)C1[C@@H]2C` (stereo not given in full), the TGI came to 0.88 µM in [1]; 2.71 µM in assay [2]; 1.36 µM in [3]; 0.88 µM in [4]; 3.2 µM in [5]; 1.02 µM in assay [6]. The TGI in assay [7] was 6.96 µM; in assay [8], 0.852 µM; in [9] it was 1.51 µM; in assay [10], 0.876 µM.

Regarding `CC(CSc1nc2c(c(=N)n1-c1ccccc1)c(=S)n(-c1ccccc1)c(=S)n2-c1ccccc1)CN(C)C` (stereo not given), the TGI in [1] turned out to be 2.37 µM; in assay [2], 2.97 µM; in assay [3], 1.05 µM; in assay [4], 7.9 µM; in assay [5] it was 5.29 µM; in [6], 4.67 µM. Moreover, the TGI turned out to be 11.6 µM in [7], 0.938 µM in assay [8], 8.1 µM in assay [9] and 3.15 µM in assay [10].

Regarding `COc1cc(-c2cc(OC)c(OC)c3ccc(Br)cc23)c2cc(Br)ccc2c1OC`, the TGI was 34.2 µM in assay [1]; above 100 µM in assay [2]; 85.7 µM in [3]; 38.8 µM in [4]; 56 µM in [5]; 45.7 µM in assay [6]. The TGI was 71.8 µM in assay [7], 86 µM in assay [8], above 100 µM in [9] and 47.7 µM in [10].

On to `O=c1[nH]c2ccccc2c(=O)n1/N=C\c1ccccc1O`, for which the TGI in assay [1], in assay [2], in assay [3], in [4], in [5] and in assay [6] was above 100 µM throughout. For the same molecule, the TGI in assay [7], in [8], in assay [9] and in [10] was above 100 µM each time.

Regarding `O=C(CCCCCCCCC(=O)N1C(=O)CC(=O)N(c2ccc(Cl)cc2)C1=S)N1C(=O)CC(=O)N(c2ccc(Cl)cc2)C1=S`, the TGI in assay [1], in assay [2], in assay [3], in [4], in [5] and in assay [6] was above 100 µM in each case. In addition, the TGI was above 100 µM in assay [7], 83.7 µM in assay [8], above 100 µM in assay [9] and above 100 µM in [10].

Take `FC(F)(Sc1ncccn1)c1nc2ccccc2o1`: the TGI in assay [1], in [2], in assay [3], in assay [4], in assay [5] and in assay [6] was above 100 µM in each case. In addition, the TGI in [7], in [8], in [9] and in [10] was above 100 µM each time.

Turning to `c1ccc(CN2CCC(CNc3ncnc4ccccc34)C2)cc1` (stereo not given), the TGI in assay [1] was above 100 µM; in [2], above 100 µM; in assay [3], above 100 µM; in [4], above 100 µM; in assay [5] it was above 100 µM; in assay [6], 85.8 µM. Moreover, the TGI in assay [7] was above 100 µM; in [8] it was 65.1 µM; in [9], above 100 µM; in assay [10] it was above 100 µM.

With `CCOC(=O)/C=C(/OCC)[C@@H]1C(C(=O)c2ccc(Cl)cc2)[C@@H]1/C(=C\C(=O)OCC)OCC` (stereo not given in full), the TGI in assay [1], in assay [2], in [3], in assay [4], in assay [5] and in assay [6] was above 100 µM in each case. For the same molecule, the TGI in [7], in assay [8], in assay [9] and in assay [10] was above 100 µM throughout.

On to `CCOC1OC(C)(C=C(C#N)C#N)CCC1C` (stereo not given), for which the TGI in [1] was above 89.2 µM; in assay [2], 96.2 µM; in [3], above 100 µM; in assay [4], 56.6 µM; in assay [5], above 100 µM; in assay [6], above 100 µM. In addition, the TGI in assay [7] is above 100 µM; in [8], above 76.2 µM; in assay [9], above 100 µM; in assay [10] it was above 100 µM.

As to `Cc1cc(C)nc(NS(=O)(=O)c2ccc(NC(=O)c3ccc4nc5ccccc5c(Nc5ccc(S(=O)(=O)N=C(N)N)cc5)c4c3)cc2)n1`, the TGI in assay [1], in assay [2], in assay [3], in [4], in assay [5] and in assay [6] was above 100 µM in each case. The TGI in assay [7], in [8], in assay [9] and in [10] was above 100 µM throughout.

Regarding `Cc1cc(C)n(C(C)(C(=O)Cc2ccccc2)n2nc(C)cc2C)n1`, the TGI in assay [1], in [2], in assay [3], in [4], in assay [5] and in [6] was above 100 µM each time. Besides, the TGI in assay [7], in assay [8], in [9] and in assay [10] was above 100 µM in each case.

With `CN(CC(=O)O)c1ncc2c(n1)-c1ccccc1CC2`, the TGI in assay [1], in assay [2], in [3], in [4], in assay [5] and in [6] was above 100 µM in each case. Moreover, the TGI in [7], in [8], in [9] and in assay [10] was above 100 µM each time.
